ChEMBL document CHEMBL3286306, “Himbacine-derived thrombin receptor antagonists: c7-spirocyclic analogues of vorapaxar” (ACS Med Chem Lett, 2014)

Assays:
[1] = AUC (0 to 6 hrs) in rat at 10 mg/kg, po; format: ADME, organism-based; set-up: time < 6 hr, dose 10 mg/kg, route oral; details: plasma
[2] = biological target: T1, Proteinase-activated receptor 1 (Homo sapiens, UniProt P25116); assay: Displacement of [3H]haTRAP from PAR-1 receptor in human platelet membranes after 1 hr by scintillation counting analysis; format: cell membranes
T1 sequence (P25116 whole entry): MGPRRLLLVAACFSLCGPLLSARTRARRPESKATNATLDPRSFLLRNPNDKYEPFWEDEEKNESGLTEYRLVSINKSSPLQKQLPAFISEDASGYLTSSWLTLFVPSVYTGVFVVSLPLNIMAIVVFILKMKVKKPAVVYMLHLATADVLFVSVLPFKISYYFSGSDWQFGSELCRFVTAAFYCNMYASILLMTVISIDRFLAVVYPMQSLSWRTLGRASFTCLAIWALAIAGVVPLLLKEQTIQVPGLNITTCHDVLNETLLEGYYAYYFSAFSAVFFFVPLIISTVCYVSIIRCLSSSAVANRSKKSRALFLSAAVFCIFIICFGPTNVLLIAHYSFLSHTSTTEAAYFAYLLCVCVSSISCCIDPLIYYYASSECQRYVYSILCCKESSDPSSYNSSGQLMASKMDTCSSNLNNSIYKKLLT

SMILES	AUC(0-t) at 6 h [1]	Ki [2]
C[C@H]1OC(=O)[C@@H]2C[C@@H]3C[C@@]4(CC[C@H]3[C@H](/C=C/c3ccc(-c5cccc(C(F)(F)F)c5)cn3)[C@H]12)CNC(=O)O4	3200 ng·h/mL	31.5 nM
C[C@H]1OC(=O)[C@@H]2C[C@@H]3C[C@@]4(CC[C@H]3[C@H](/C=C/c3ccc(-c5cccc(F)c5)cn3)[C@H]12)COC(=O)N4		28 nM
C[C@H]1OC(=O)[C@@H]2C[C@@H]3C[C@]4(CC[C@H]3[C@H](/C=C/c3ccc(-c5cccc(C(F)(F)F)c5)cn3)[C@H]12)CNC(=O)O4		392 nM
C[C@H]1OC(=O)[C@@H]2C[C@@H]3C[C@@]4(CC[C@H]3[C@H](/C=C/c3ccc(-c5ccccc5C#N)cn3)[C@H]12)COC(=O)N4		8.9 nM
C[C@H]1OC(=O)[C@@H]2C[C@@H]3C[C@]4(CC[C@H]3[C@H](/C=C/c3ccc(-c5cccc(F)c5)cn3)[C@H]12)COC(=O)N4	3240 ng·h/mL	15.5 nM
C[C@H]1OC(=O)[C@@H]2C[C@@H]3C[C@@]4(CC[C@H]3[C@H](/C=C/c3ccc(-c5ccccc5F)cn3)[C@H]12)COC(=O)N4		25 nM
C[C@H]1OC(=O)[C@@H]2C[C@@H]3C[C@]4(CC[C@H]3[C@H](/C=C/c3ccc(-c5cccc(C#N)c5)cn3)[C@H]12)COC(=O)N4		267 nM
C[C@H]1OC(=O)[C@@H]2C[C@@H]3C[C@@]4(CC[C@H]3[C@H](/C=C/c3ccc(-c5cccc(C#N)c5)cn3)[C@H]12)COC(=O)N4		43 nM
C[C@H]1OC(=O)[C@@H]2C[C@@H]3C[C@@]4(CC[C@H]3[C@H](/C=C/c3ccc(-c5ccccn5)cn3)[C@H]12)COC(=O)N4		232 nM
C[C@H]1OC(=O)[C@@H]2C[C@@H]3C[C@]4(CC[C@H]3[C@H](/C=C/c3ccc(-c5cccc(C(F)(F)F)c5)cn3)[C@H]12)COC(=O)N4	4920 ng·h/mL	21 nM
C[C@H]1OC(=O)[C@@H]2C[C@@H]3C[C@]4(CC[C@H]3[C@H](/C=C/c3ccc(-c5ccccc5C#N)cn3)[C@H]12)COC(=O)N4		5.1 nM
C[C@H]1OC(=O)[C@@H]2C[C@@H]3C[C@@]4(CC[C@H]3[C@H](/C=C/c3ccc(-c5cccc(C(F)(F)F)c5)cn3)[C@H]12)COC(=O)N4		26.5 nM
